The record followed here is patent US20040248765A1, “Tumour targeting prodrugs activated by metallo matrixproteinases” (priority 2001, published 2004).

Data set [1] deals with MAC15A adenocarcinoma of the colon. As to the kind of experiment: In vitro cytotoxicity against MAC15A adenocarcinoma of the colon, 96 hours exposure. The format is cell-based.
The mark [2] stands for this setting: Mus musculus, exposure time 96 hours, read-out: IC50.
[3] abbreviates: exposure time 96 hours, read-out: IC50.

Where a name gives a salt, the structure may show the parent alone. Read-outs that look alike come from different tables or passages of the source. Where a SMILES comes first, the peptide text is derived from it. [ ]: non-standard residue; d: D form. The star is where a group is joined. NH(CH2)3NH(1-anthraquinonyl) = O=C1c2ccccc2C(=O)c2c(NCCCN*)cccc21; Nle = CCCC[C@H](N)C(=O)O; Nva = CCC[C@H](N)C(=O)O; Mob = COc1ccc(C*)cc1

By melting point is commonly meant the temperature of the solid-liquid transition. The molecule `CCC[C@H](NC(=O)[C@H](Cc1ccc(O)cc1)NC(=O)[C@H](C)N)C(=O)NCC(=O)N[C@@H](CC(C)C)C(=O)N1CCC[C@H]1C(=O)NCCCNc1cccc2c1C(=O)c1ccccc1C2=O.O=C(O)C(F)(F)F` (H-AY[Nva]GLP-{NH(CH2)3NH(1-anthraquinonyl)}) displayed a melting point of 182 °C. Still for that read-out and setting: for `CCCC[C@H](NC(=O)[C@H](C)N)C(=O)NCC(=O)N[C@@H](CC(C)C)C(=O)N1CCC[C@H]1C(=O)NCCCNc1cccc2c1C(=O)c1ccccc1C2=O.O=C(O)C(F)(F)F` (H-A[Nle]GLP-{NH(CH2)3NH(1-anthraquinonyl)}) the value was 185 °C; for `CCC[C@H](NC(=O)[C@H](C)N)C(=O)NCC(=O)N[C@@H](CC(C)C)C(=O)N1CCC[C@H]1C(=O)NCCCNc1cccc2c1C(=O)c1ccccc1C2=O.O=C(O)C(F)(F)F` (H-A[Nva]GLP-{NH(CH2)3NH(1-anthraquinonyl)}), 198 °C; for `CCC[C@H](NC(=O)[C@H](C)N)C(=O)N[C@@H](CC(C)C)C(=O)NCC(=O)N[C@@H](CC(C)C)C(=O)N1CCC[C@H]1C(=O)NCCCNc1cccc2c1C(=O)c1ccccc1C2=O.O=C(O)C(F)(F)F` (H-A[Nva]LGLP-{NH(CH2)3NH(1-anthraquinonyl)}), 192 °C. On the same count and under the same terms, for `COc1ccc(CSC[C@H](N)C(=O)NCC(=O)N[C@@H](CC(C)C)C(=O)N2CCC[C@H]2C(=O)NCCCNc2cccc3c2C(=O)c2ccccc2C3=O)cc1.O=C(O)C(F)(F)F` (H-C(Mob)GLP-{NH(CH2)3NH(1-anthraquinonyl)}) the value was 182 °C.

The molecule `CC(C)C[C@H](NC(=O)CN)C(=O)N[C@@H](C)C(=O)N[C@@H](CC(C)C)C(=O)N1CCC[C@H]1C(=O)NCCCNc1cccc2c1C(=O)c1ccccc1C2=O.O=C(O)C(F)(F)F` (H-GLALP-{NH(CH2)3NH(1-anthraquinonyl)}) registered a melting point of 192 to 194 °C.

In turn, `CC(C)C[C@H](NC(=O)[C@H](C)NC(=O)[C@@H](N)CC(C)C)C(=O)N1CCC[C@H]1C(=O)NCCCNc1cccc2c1C(=O)c1ccccc1C2=O.O=C(O)C(F)(F)F` (H-LALP-{NH(CH2)3NH(1-anthraquinonyl)}) yielded a melting point of 178 to 180 °C. On to `CC(C)C[C@H](NC(=O)[C@H](Cc1ccccc1)NC(=O)[C@@H](N)CC(C)C)C(=O)N1CCC[C@H]1C(=O)NCCCNc1cccc2c1C(=O)c1ccccc1C2=O.O=C(O)C(F)(F)F` (H-LFLP-{NH(CH2)3NH(1-anthraquinonyl)}), for which the melting point lay within 184 to 186 °C.

`CCC[C@H](NC(=O)CNC(=O)[C@@H](N)CC(C)C)C(=O)N1CCC[C@H]1C(=O)NCCCNc1cccc2c1C(=O)c1ccccc1C2=O.O=C(O)C(F)(F)F` (H-LG[Nva]P-{NH(CH2)3NH(1-anthraquinonyl)}) displayed a melting point of 172 to 176 °C.

As to `CC(C)C[C@H](NC(=O)[C@@H](N)Cc1ccc(O)cc1)C(=O)NCC(=O)N[C@@H](CC(C)C)C(=O)N1CCC[C@H]1C(=O)NCCCNc1cccc2c1C(=O)c1ccccc1C2=O.O=C(O)C(F)(F)F` (H-YLGLP-{NH(CH2)3NH(1-anthraquinonyl)}), the melting point fell in the range of 184 to 188 °C. For `CCC[C@H](NC(=O)[C@@H](N)Cc1ccc(O)cc1)C(=O)NCC(=O)N[C@@H](CC(C)C)C(=O)N1CCC[C@H]1C(=O)NCCCNc1cccc2c1C(=O)c1ccccc1C2=O.O=C(O)C(F)(F)F` (H-Y[Nva]GLP-{NH(CH2)3NH(1-anthraquinonyl)}), the melting point came to 174 °C.

Regarding `CCCC[C@H](N)C(=O)NCC(=O)N[C@@H](CC(C)C)C(=O)N1CCC[C@H]1C(=O)NCCCNc1cccc2c1C(=O)c1ccccc1C2=O.O=C(O)C(F)(F)F` (H-[Nle]GLP-{NH(CH2)3NH(1-anthraquinonyl)}), the melting point is 169 °C.

On to `CCC[C@H](N)C(=O)NCC(=O)N[C@@H](CC(C)C)C(=O)N1CCC[C@H]1C(=O)NCCCNc1cccc2c1C(=O)c1ccccc1C2=O.O=C(O)C(F)(F)F` (H-[Nva]GLP-{NH(CH2)3NH(1-anthraquinonyl)}), for which the melting point is 210 °C. The same measure, in the same setting: for `CCC[C@H](N)C(=O)N[C@@H](CC(C)C)C(=O)NCC(=O)N[C@@H](CC(C)C)C(=O)N1CCC[C@H]1C(=O)NCCCNc1cccc2c1C(=O)c1ccccc1C2=O.O=C(O)C(F)(F)F` (H-[Nva]LGLP-{NH(CH2)3NH(1-anthraquinonyl)}) the value was 189 °C.

For orientation: IC50 means the concentration that inhibits the measured activity by half. Regarding `O=C(O)C(F)(F)F.O=C1c2ccccc2C(=O)c2c(NCCCNC(=O)[C@H]3CCCN3)cccc21` [Example 9, 1-[3-(D-Prolylamino)propylamino]anthraquinone trifluoroacetate], the melting point came out at 177 °C. Further, half-maximal inhibition in data set [1] (Mus musculus, 96 h) (IC50) was put at 3.5 µM. Turning to `CC(C)C[C@H](N)C(=O)N1CCC[C@@H]1C(=O)NCCCNc1cccc2c1C(=O)c1ccccc1C2=O` [Example 10, 1-[3-(L-Leucyl-D-prolylamino)propylamino]anthraquinone trifluoroacetate], inhibition in data set [1] (Mus musculus, 96 h) was half-maximal at 7 µM (IC50). Still for that read-out and setting: to `CC(C)C[C@H](NC(=O)CN)C(=O)N1CCC[C@@H]1C(=O)NCCCNc1cccc2c1C(=O)c1ccccc1C2=O` [Example 11, 1-[3-(Glycyl-L-leucyl-D-prolylamino)propylamino]anthraquinone trifluoroacetate] belongs 22 µM; to `CC(C)C[C@H](NC(=O)CNC(=O)[C@@H](N)CC(C)C)C(=O)N1CCC[C@@H]1C(=O)NCCCNc1cccc2c1C(=O)c1ccccc1C2=O` [Example 12, 1-[3-(L-Leucyl-glycyl-L-leucyl-D-prolylamino)propylamino]-anthraquinone trifluoroacetate] (H-LGL[dP]-{NH(CH2)3NH(1-anthraquinonyl)}), 30 µM. Take `CC(C)C[C@H](NC(=O)[C@H](C)NC(=O)[C@H](C)N)C(=O)NCC(=O)N[C@@H](CC(C)C)C(=O)N1CCC[C@@H]1C(=O)NCCCNc1cccc2c1C(=O)c1ccccc1C2=O.O=C(O)C(F)(F)F` [Example 14, 1-[3-(L-Alanyl-L-alanyl-L-leucyl-glycyl-L-leucyl-D-prolylamino)-propylamino]anthraquinone trifluoroacetate]: the melting point is 132 °C. For the same molecule, the concentration for half-maximal inhibition (IC50) in data set [1] (setting [2]) came out at 38 µM. `CC(C)C[C@H](NC(=O)[C@H](C)NC(=O)[C@H](C)NC(=O)[C@@H](C)N)C(=O)NCC(=O)N[C@@H](CC(C)C)C(=O)N1CCC[C@@H]1C(=O)NCCCNc1cccc2c1C(=O)c1ccccc1C2=O.O=C(O)C(F)(F)F` [Example 15, 1-[3-(D-Alanyl-L-alanyl-L-alanyl-L-leucyl-glycyl-L-leucyl-D-prolylamino)propylamino]anthraquinone trifluoroacetate] (H-[dA]AALGL[dP]-{NH(CH2)3NH(1-anthraquinonyl)}) showed a melting point of 166 °C. The same molecule showed an IC50 in data set [1] (Mus musculus, 96 h) of 40 µM. In turn, `CCC[C@H](NC(=O)[C@@H](N)CCC)C(=O)NCC(=O)N[C@@H](CC(C)C)C(=O)N1CCC[C@H]1C(=O)NCCCNc1cccc2c1C(=O)c1ccccc1C2=O.O=C(O)C(F)(F)F` [Example 45, 1-[3-(L-Norvalyl-L-norvalyl-glycyl-L-leucyl-L-prolylamino)propyl-amino]anthraquinone trifluoroacetate] (H-[Nva][Nva]GLP-{NH(CH2)3NH(1-anthraquinonyl)}) came in with a melting point of 174 to 176 °C. Further, in data set [1] (setting [2]), the IC50 worked out at 4 µM. As for `CCC[C@H](NC(=O)[C@H](C)N)C(=O)N[C@@H](CCC)C(=O)NCC(=O)N[C@@H](CC(C)C)C(=O)N1CCC[C@H]1C(=O)NCCCNc1cccc2c1C(=O)c1ccccc1C2=O` [Example 46, 1-3-(L-Alanyl-L-norvalyl-L-norvalyl-glycyl-L-leucyl-L-prolylamino)-propylamino]anthraquinone trifluoroacetate] (H-A[Nva][Nva]GLP-{NH(CH2)3NH(1-anthraquinonyl)}), the IC50 in data set [1] (setting [3]) worked out at 8 µM.

With `CCC[C@H](NC(=O)[C@H](C)NC(=O)[C@@H](C)N)C(=O)N[C@@H](CCC)C(=O)NCC(=O)N[C@@H](CC(C)C)C(=O)N1CCC[C@H]1C(=O)NCCCNc1cccc2c1C(=O)c1ccccc1C2=O` [Example 47, 1-[3-(D-AlanyI-L-alanyl-L-norvalyl-L-norvalyl-glycyl-L-leucyl-L-prolylamino)propylamino]anthraquinone trifluoroacetate] (H-[dA]A[Nva][Nva]GLP-{NH(CH2)3NH(1-anthraquinonyl)}), the IC50 in data set [1] (setting [3]) was 22 µM.

With `N[C@@H](Cc1ccccc1)C(=O)N1CCC[C@H]1C(=O)NCCCNc1cccc2c1C(=O)c1ccccc1C2=O.O=C(O)C(F)(F)F` [Example 72, 1-[3-(L-Phenylalanyl-L-prolylamino)propylamino]anthraquinone trifluoroacetate], the melting point fell in the range of 118 to 120 °C. This molecule came in with an IC50 in data set [1] (Mus musculus, 96 h) of 3 µM. In the same order, the values of `NCC(=O)N[C@@H](Cc1ccccc1)C(=O)N1CCC[C@H]1C(=O)NCCCNc1cccc2c1C(=O)c1ccccc1C2=O.O=C(O)C(F)(F)F` [Example 73, 1-[3-(Glycyl-L-phenylalanyl-L-prolylamino)propylamino]anthraquinone trifluoroacetate] are 129 °C and 2.5 µM. In the case of `CC[C@H](C)[C@H](N)C(=O)NCC(=O)N[C@@H](Cc1ccccc1)C(=O)N1CCC[C@H]1C(=O)NCCCNc1cccc2c1C(=O)c1ccccc1C2=O.O=C(O)C(F)(F)F` [Example 74, 1-[3-(L-Isoleucyl-glycyl-L-phenylalanyl-L-prolylamino)propylamino]-anthraquinone trifluoroacetate], the melting point lay within 122 to 124 °C. The IC50 in data set [1] (setting [2]) worked out at 2.5 µM. In the same order, the values of `CC[C@H](C)[C@H](NC(=O)[C@@H](N)Cc1ccccc1)C(=O)NCC(=O)N[C@@H](Cc1ccccc1)C(=O)N1CCC[C@H]1C(=O)NCCCNc1cccc2c1C(=O)c1ccccc1C2=O.O=C(O)C(F)(F)F` [Example 75, 1-[3-(L-Phenylalanyl-L-isoleucyl-glycyl-L-phenylalanyl-L-prolylamino)-propylamino]anthraquinone trifluoroacetate] are 132 to 136 °C and 20 µM.

Regarding `CC[C@H](C)[C@H](NC(=O)[C@H](Cc1ccccc1)NC(=O)[C@@H](N)CC(C)C)C(=O)NCC(=O)N[C@@H](Cc1ccccc1)C(=O)N1CCC[C@H]1C(=O)NCCCNc1cccc2c1C(=O)c1ccccc1C2=O.O=C(O)C(F)(F)F` [Example 76, 1-[3-(L-Leucyl-L-phenylalanyl-L-isoleucyl-glycyl-L-phenylalanyl-L-prolylamino)propylamino]anthraquinone trifluoroacetate], the melting point was 166 to 178 °C. Further, the IC50 in data set [1] (setting [2]) was 21 µM.
